Where two headings read alike, the source gives them in different places.
Legend:
[1] = target: heteromeric rod CNG channels consisting of CNGA1 and CNGB1 subunits (Bos taurus, UniProt Q00194+Q28181); assay: biochemical; assay type: cell-based; details: for Kd: 2 mM cGMP
Experimental: Currents were elicited by a voltage step protocol from 0 to −50 to +50 mV (See FIG. 1) in the presence of 2 mM cGMP or 2 mM cGMP and compound (5 μM). Time scale is shown in the lower left-hand corner of the panel and FIG. 1, and the zero current level is indicated by the dotted line.
The solid line indicates the fit of the equation for block at a single binding site.
Time scale is shown in the lower left-hand corner of the panel and FIG. 1, and the zero current level is indicated by the dotted line. […] Solid line indicates the fit of the equation for block at a single binding site.
The effectiveness of retinal rod CNG channel current block by the disclosed compounds was tested in Xenopus oocyte preparations. Excised, inside-out patches pulled from oocytes expressed heteromeric rod CNG channels consisting of CNGA1 and CNGB1 subunits. […] CNG channel currents were elicited by a voltage step protocol to −50 and +50 mV (FIG. 1). The apparent KD value at each membrane potential was estimated first by determining I+B and I−B at steady state, where I+B is the current in the presence of blocker and I−B is current in the absence of blocker, for different blocker concentrations ([B]).
Ovaries were surgically removed from adult Xenopus laevis females (Xenopus Express; Brooksville, Fla.) anesthetized with ice-cold 0.1% tricaine and 0.1% NaHCO3 solution. Oocytes were chemically released from ovarian follicles in Ca^2+-free Barth's solution (88 mM NaCl, 1 mM KCl, 2.4 mM NaHCO3, 0.82 mM MgSO4, 7.5 mM Tris, 2.5 mM sodium pyruvate, 100 U/mL penicillin, and 100 μg/mL streptomycin, pH 7.4) containing 0.1 U/mL Liberase Blendzymes (Roche, Indianapolis, Ind.). Stages IV and V oocytes were visually sorted and stored in ND-96 (96 mM NaCl, 2 mM KCl, 1.8 mM CaCl2, 1 mM MgCl2, 5 mM HEPES, 2.5 mM sodium pyruvate, 100 U/mL penicillin, and 100 μg/mL streptomycin, pH 7.4) at 16° C. Oocytes were co-injected the following day with 33 ng of CNGA1 and 67 ng of CNGB1 cRNA […] synthesized from linearized pGEM-HE expression vectors containing the channel subunit cDNA sequence (Strassmaier T & Karpen J, J Med Chem 50, 4186-4194, (2007), incorporated by reference herein) using T7 mMESSAGE mMACHINE® (Ambion, Austin, Tex.). Injected oocytes were incubated at 18° C. the first day and 16° C. for the remaining days.
(§1) Recordings from inside-out excised patches were made 3-7 days after oocyte injection on an Axopatch 1D® amplifier (Axon Instruments, Foster City, Calif.). Briefly, oocyte vitelline membranes were removed in solution containing 200 mM K aspartate, 20 mM KCl, 1 mM MgCl2, 10 mM EGTA, 10 mM HEPES, pH 7.4. Oocytes were placed in a recording chamber in a solution containing 130 mM NaCl, 2 mM HEPES, 0.02 mM EDTA, 1 mM EGTA, pH 7.6, and borosilicate glass electrodes (1-3 MΩ) were filled with identical solution. Macroscopic currents were filtered at 1 kHz and sampled at 2 kHz using pCLAMP 8.0® software (Axon Instruments). Channels were either fully activated with 2 mM or partially activated with 50 and 100 μM cGMP. […] Glass syringes and Teflon tubing were used to minimize the binding of compounds to surfaces; concentrations passing through the perfusion system were verified by absorbance.

[2] = system: heteromeric rod CNG channels consisting of CNGA1 and CNGB1 subunits; assay: CNG channel block at subsaturating cGMP (state dependence of block); assay type: cell-based; details: subsaturating cGMP (50 or 100 μM), +50 mV, normalized to KD at 2 mM cGMP
Source text: KD values at saturating cGMP were corrected for ion accumulation. Solid lines indicate simulations for exclusive closed channel blockers, using KD/KDsat=(1−Fsat)/(1−FsatI/Imax), where Fsat is the estimated fraction of open heteromeric rod channels in saturating cGMP assuming Fsat=0.3 (a), 0.56 (b), or 0.78 (c). The dotted line is a simulation for a blocker with no preference for state, or KD/KDsat=1. The dashed line is a simulation for an exclusive open channel blocker, using KD/KDsat=(I/Imax)^−1.
The solid lines in FIG. 4 marked a, b, and c represent the expected relationship between KD and the fraction of closed channels for an exclusive closed channel blocker. Each of a, b, and c uses one estimate for the probability of closed heteromeric retinal rod channels at saturating cGMP. The simulations are described in the following references: Matthews G et al, J Physiol 403, 389-405 (1988); Taylor W R & Baylor D A, J Physiol 483 567-582 (1995); and Bucossi G et al, Biophys J 72, 1165-1181 (1997), all of which are incorporated by reference herein. The dotted line represents a simulation of a blocker with no preference as to conformational of the channel. The dashed line represents a simulation for an exclusive open channel blocker.
as §1, with “absorbance. Current traces were digitally filtered at 300 Hz (Gaussian) and averaged using Clampfit 8.2® software. Currents in the absence of cGMP were subtracted from all currents analyzed. KD values were determined and expressed as the mean±SD.” for “absorbance.”

[3] = target: T1, Butyrylcholinesterase purified from human blood serum (Homo sapiens, UniProt P06276); assay: In vitro hydrolysis by serum cholinesterase (butyrylcholinesterase); assay type: in vitro ADME; details: 50 μM compound, 0.1M phosphate buffer pH 7.4, 37° C.; mean±SD of triplicate
T1 construct: Butyrylcholinesterase purified from human blood serum; purchased Sigma; host or cells: purified from human blood serum
Experimental: Compound 1 is rapidly hydrolyzed by butyrylcholinesterase in the bloodstream. Butyrylcholinesterase purified from human blood serum was used to test the resistance of the disclosed compounds to hydrolysis.
(§2) All enzymatic assays were performed with 50 μM compound in 0.1M phosphate buffer, pH 7.4, at 37° C. with stirring, unless otherwise noted. Butyrylcholinesterase stock solutions from human serum (Sigma, St. Louis, Mo.) were prepared at 100 U/mL in 0.1 M phosphate buffer, pH 7.4, and stored at −20° C. until use. Hydrolysis was monitored on an 8452A diode array spectrophotometer (Hewlett-Packard). Product peak wavelength absorption was immediately monitored upon addition of compound. Absorbances for complete hydrolysis were determined when there were no further detectable changes. […] All hydrolysis assays were performed in triplicate, and final rate constants are expressed as the mean±SD of the three individually determined rate constants. In some experiments with compound 1, samples were taken at the beginning and end of the assay to verify the hydrolysis product and the completion of the reaction by HPLC. These samples were compared to compounds 1 and 3 on a C18 column eluted with 0.1% TFA in water/acetonitrile. Activity of chymotrypsin (bovine, Worthington Biochemical Co., 190 μg/mL) was verified with 90 μM 4-nitrophenyl acetate in 0.1 M HEPES solution, pH 6.5, at 37° C. with stirring. Hydrolysis product was monitored at 404 nm for 10 min. Activity of proteinase K (from Engyodontium album, Sigma, 165 μg/mL) was verified with 16.5 mg/mL bovine serum albumin in 0.1 M phosphate buffer, pH 7.4, at 37° C. Samples were taken at time point increments up to 2 hours when the reaction reached completion. Samples were analyzed with 12% SDS-PAGE, stained with 0.1% Coomassie Blue.

chymotrypsin = target: T2, chymotrypsin (Bos taurus, UniProt P00766); assay: In vitro hydrolysis by chymotrypsin; assay type: in vitro ADME
T2 construct: purchased Worthington Biochemical Co
Experimental: as §2, with “In some experiments with compound 1, samples were taken at the beginning and end of the assay to verify the hydrolysis product and the completion of the reaction by HPLC. These samples were compared to compounds 1 and 3 on a C18 column eluted with 0.1% TFA in water/acetonitrile.” left out

[4] = octyl series table, +50 mV, read-out: KD(+50)
[5] = octyl series table, −50 mV, read-out: KD(−50)
[6] = Table 2 (butyl series), +50 mV, read-out: KD(+50)
[7] = Table 2 (butyl series), −50 mV, read-out: KD(−50)

Sequence of heteromeric rod CNG channels consisting of CNGA1 and CNGB1 subunits (Bos taurus, UniProt Q00194+Q28181) (Q00194 whole entry): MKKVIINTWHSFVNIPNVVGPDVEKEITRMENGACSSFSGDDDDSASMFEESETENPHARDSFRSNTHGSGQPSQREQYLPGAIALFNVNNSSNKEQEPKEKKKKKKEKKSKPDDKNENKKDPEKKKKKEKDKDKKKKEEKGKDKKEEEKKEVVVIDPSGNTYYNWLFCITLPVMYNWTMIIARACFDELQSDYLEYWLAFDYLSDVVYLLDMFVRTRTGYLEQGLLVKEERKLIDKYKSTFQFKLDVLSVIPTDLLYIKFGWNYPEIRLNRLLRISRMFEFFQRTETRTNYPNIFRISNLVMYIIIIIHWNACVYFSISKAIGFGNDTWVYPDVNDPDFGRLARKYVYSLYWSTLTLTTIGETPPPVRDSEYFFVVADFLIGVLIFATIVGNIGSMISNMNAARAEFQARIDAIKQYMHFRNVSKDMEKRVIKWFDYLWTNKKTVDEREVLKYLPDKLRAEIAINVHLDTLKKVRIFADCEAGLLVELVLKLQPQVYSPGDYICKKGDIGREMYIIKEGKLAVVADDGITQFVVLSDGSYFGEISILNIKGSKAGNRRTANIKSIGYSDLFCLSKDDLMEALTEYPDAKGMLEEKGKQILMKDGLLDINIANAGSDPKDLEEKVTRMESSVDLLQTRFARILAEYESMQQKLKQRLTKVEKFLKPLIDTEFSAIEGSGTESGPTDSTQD
Sequence of heteromeric rod CNG channels consisting of CNGA1 and CNGB1 subunits (Bos taurus, UniProt Q00194+Q28181) (Q28181 whole entry): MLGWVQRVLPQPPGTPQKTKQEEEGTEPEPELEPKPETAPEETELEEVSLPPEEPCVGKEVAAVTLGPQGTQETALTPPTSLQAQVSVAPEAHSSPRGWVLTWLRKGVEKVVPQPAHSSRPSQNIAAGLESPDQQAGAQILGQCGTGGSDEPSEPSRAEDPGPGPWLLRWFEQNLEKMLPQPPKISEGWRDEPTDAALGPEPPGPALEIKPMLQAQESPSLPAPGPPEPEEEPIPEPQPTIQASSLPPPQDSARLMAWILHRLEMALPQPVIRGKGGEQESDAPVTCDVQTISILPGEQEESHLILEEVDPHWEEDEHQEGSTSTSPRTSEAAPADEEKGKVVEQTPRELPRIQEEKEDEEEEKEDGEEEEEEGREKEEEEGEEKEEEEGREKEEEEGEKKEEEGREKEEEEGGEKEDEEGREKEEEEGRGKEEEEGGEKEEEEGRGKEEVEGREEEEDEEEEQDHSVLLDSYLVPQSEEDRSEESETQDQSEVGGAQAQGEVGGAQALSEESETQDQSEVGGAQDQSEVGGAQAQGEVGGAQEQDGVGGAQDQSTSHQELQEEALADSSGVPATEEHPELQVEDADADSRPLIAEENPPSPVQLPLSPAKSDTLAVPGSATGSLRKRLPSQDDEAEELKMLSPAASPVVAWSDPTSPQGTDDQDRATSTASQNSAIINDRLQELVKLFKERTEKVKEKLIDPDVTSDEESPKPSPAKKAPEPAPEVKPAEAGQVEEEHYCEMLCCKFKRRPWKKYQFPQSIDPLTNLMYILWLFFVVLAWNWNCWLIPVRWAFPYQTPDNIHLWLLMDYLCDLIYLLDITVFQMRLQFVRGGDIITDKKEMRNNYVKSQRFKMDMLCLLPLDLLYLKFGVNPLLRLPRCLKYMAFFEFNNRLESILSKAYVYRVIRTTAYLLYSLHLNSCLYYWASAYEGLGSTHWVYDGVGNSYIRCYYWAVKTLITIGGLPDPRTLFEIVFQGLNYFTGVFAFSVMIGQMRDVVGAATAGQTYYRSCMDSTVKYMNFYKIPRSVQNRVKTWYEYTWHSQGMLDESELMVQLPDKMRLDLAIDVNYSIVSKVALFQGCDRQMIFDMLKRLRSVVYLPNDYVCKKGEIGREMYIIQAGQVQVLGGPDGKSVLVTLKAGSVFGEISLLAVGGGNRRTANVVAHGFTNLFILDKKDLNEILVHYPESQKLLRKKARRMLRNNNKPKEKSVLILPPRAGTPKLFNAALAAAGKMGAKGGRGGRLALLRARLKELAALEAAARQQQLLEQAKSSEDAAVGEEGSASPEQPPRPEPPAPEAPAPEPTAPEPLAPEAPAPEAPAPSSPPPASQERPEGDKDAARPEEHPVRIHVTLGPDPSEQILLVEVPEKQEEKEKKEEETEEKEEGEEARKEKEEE
T1 sequence (P06276 29-602): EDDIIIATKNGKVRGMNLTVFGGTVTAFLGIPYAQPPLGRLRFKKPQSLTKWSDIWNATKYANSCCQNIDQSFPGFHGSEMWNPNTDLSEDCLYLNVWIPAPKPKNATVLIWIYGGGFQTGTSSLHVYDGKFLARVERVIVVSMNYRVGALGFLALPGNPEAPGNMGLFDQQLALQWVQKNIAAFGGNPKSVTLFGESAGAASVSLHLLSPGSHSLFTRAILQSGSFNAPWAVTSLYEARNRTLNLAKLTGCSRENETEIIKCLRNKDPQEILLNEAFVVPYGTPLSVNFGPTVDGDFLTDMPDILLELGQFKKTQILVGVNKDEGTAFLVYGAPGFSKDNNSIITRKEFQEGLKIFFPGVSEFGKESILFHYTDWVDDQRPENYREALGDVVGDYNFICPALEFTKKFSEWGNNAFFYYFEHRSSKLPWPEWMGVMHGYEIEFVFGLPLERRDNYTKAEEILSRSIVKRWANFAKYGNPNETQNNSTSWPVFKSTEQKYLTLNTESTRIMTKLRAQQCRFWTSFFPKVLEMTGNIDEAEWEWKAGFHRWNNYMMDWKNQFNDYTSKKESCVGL

## CCCCCCCCNc1ccc(C(=O)OCCN(C)C)c(Cl)c1 [Compound 14g, 2-(dimethylamino)ethyl 4-(octylamino)-2-chlorobenzoate]
[1]; [4]
  Kd: 100 ± 90 nM
[1]; [5]
  Kd: 220 ± 130 nM

## CCCCCCCCNc1ccc(C(=O)OCCN(C)C)cc1F [Compound 14e, 2-(dimethylamino)ethyl 4-(octylamino)-3-fluorobenzoate]
[1]; [4]
  Kd: 200 ± 100 nM
[1]; [5]
  Kd: 750 ± 860 nM

## CCCCNc1ccc(C(=O)OCCN(C)C)cc1OC [Compound 12b, 2-(dimethylamino)ethyl 4-(butylamino)-3-methoxybenzoate]
[1]; [6]
  Kd: 4300 ± 800 nM
[1]; [7]
  Kd: 18300 ± 4400 nM

## COc1ccc([C@H]2Sc3ccccc3N(CCN(C)C)C(=O)[C@H]2OC(C)=O)cc1 (relative stereo) [l-cis-diltiazem, reference compound]
[1]
  block of 2 mM cGMP-induced currents: 74.2±5.8%

## CCCCCCCCNc1ccc(C(=O)OCCN(C)C)cc1C [Compound 14c, 2-(dimethylamino)ethyl 4-(octylamino)-3-methylbenzoate]
[1]; [4]
  Kd: 500 ± 420 nM
[1]; [5]
  Kd: 1410 ± 840 nM

## CCCCCCCCNc1ccc(C(=O)OCCN(C)C)cc1Cl [Compound 14d, 2-(dimethylamino)ethyl 4-(octylamino)-3-chlorobenzoate]
[1]
  improvement of affinity / blocking potency compared to compound 5: approximately six-fold improvement
[1]; [4]
  Kd: 140 ± 40 nM
[1]; [5]
  Kd: 380 ± 160 nM

## CCCCNc1ccc(C(=O)OCCN(C)C)cc1[N+](=O)[O-] [Compound 12a, 2-(dimethylamino)ethyl 4-(butylamino)-3-nitrobenzoate]
[1]; [6]
  Kd: 5500 ± 3200 nM
[1]; [7]
  Kd: 19600 ± 14400 nM

## CCCCCCCCNc1ccc(C(=O)OCCN(C)C)cc1[N+](=O)[O-] [Compound 14a, 2-(dimethylamino)ethyl 4-(octylamino)-3-nitrobenzoate]
[1]; [4]
  Kd: 8000 ± 5800 nM
[1]; [5]
  Kd: 12600 ± 7300 nM

## CCCCNc1ccc(C(=O)OCCN(C)C)cc1 [Compound 1, 2-(dimethylamino)ethyl 4-(butylamino)benzoate, reference compound]
[2]
  state dependence of block (KD vs fraction of closed channels): better fit the results expected of a closed channel blocker
[3]
  Hydrolysis rate: 132 ± 10 nmol/min/mg

## CC(=O)Oc1ccc([N+](=O)[O-])cc1 [4-nitrophenyl acetate, reference compound]
chymotrypsin
  hydrolysis products with chymotrypsin: detected

## CCCCCCCCNc1ccc(C(=O)OCCN(C)C)cc1OC [Compound 14b, 2-(dimethylamino)ethyl 4-(octylamino)-3-methoxybenzoate]
[1]; [4]
  Kd: 1250 ± 1230 nM
[1]; [5]
  Kd: 3000 ± 3400 nM

## CCCCNc1ccc(C(=O)OCCN(C)C)cc1C [Compound 12c, 2-(dimethylamino)ethyl 4-(butylamino)-3-methylbenzoate]
[1]; [6]
  Kd: 7800 ± 3100 nM
[1]; [7]
  Kd: 28100 ± 13400 nM

## CCCCCCCCNc1ccc(C(=O)OCCN(C)C)cc1Br [Compound 14f, 2-(dimethylamino)ethyl 4-(octylamino)-3-bromobenzoate]
[1]; [4]
  Kd: 140 ± 30 nM
[1]; [5]
  Kd: 240 ± 100 nM

## CCCCNc1ccc(C(=O)OCCN(C)C)cc1Cl [Compound 12d, 2-(dimethylamino)ethyl 4-(butylamino)-3-chlorobenzoate]
[1]
  improvement of affinity / blocking potency compared to compound 1 (tetracaine): 1.6 fold
[1]; [6]
  Kd: 3000 ± 1000 nM
[1]; [7]
  Kd: 12800 ± 4100 nM

— US9458102B2 (priority 2011, dated 2016)
